Source: patent publication US20260364124A1, “ANTI-C. DIFFICILE SMALL MOLECULE METABOLITES FROM DIET AND GUT MICROBIOME” (The Children's Medical Center Corporation, priority 2023, published 2026)
Entries after “also recorded” stand apart in the source; their conditions may differ.

Tests used:
C. difficile M7404 = experiment: In vitro polydatin bioactivation and C. difficile antagonism by conditioned (spent) media of B. uniformis WT; assay type: cell-based, Clostridioides difficile; conditions: polydatin 500 μM, 1/2-diluted, C. difficile M7404 growth 12 h (FIG. 5A)
Experimental: FIGS. 5A and 5B show microbiome-mediated polyphenol aglycone liberation. […] Step 2: Spent media was filter-sterilized. Step 3: C. difficile was grown in spent media from either vehicle or polydatin (top). […]
The experimental media consisted of a modified YCFA media (mYCFA; casitone (2.5 g/L), yeast extract (0.625 g/L), cysteine (0.5 g/L), magnesium sulfate heptahydrate (f.c. 365 μM), calcium chloride dihydrate (f.c. 610 μM), sodium bicarbonate (4 g/L), dipotassium phosphate (0.45 g/L), monopotassium phosphate (0.45 g/L), sodium chloride (0.9 g/L), sodium acetate (2.71 g/L), Hemin (50 mg/L), Vitamin K1 (0.25 mg/L), ferrous sulfate (4 μg/mL), and ATCC vitamin mix (1% v/v)) supplemented with glucose (15 mM, Sigma) plus ½-diluted B. uniformis WT or AgshD conditioned media from growth with or without polydatin. C. difficile growth was monitored by measuring the optical density at 600 nm (OD600) of each culture in a 384 well plate with an Epoch2 spectrophotometer (BioTek Instruments) for 12 hours.

C. difficile isolates = experiment: Phytochemical microbial killing assay, diverse C. difficile isolates; assay type: cell-based, Clostridioides difficile
Experimental: FIG. 3B provides a heatmap of growth of 20 Clostridioides difficile isolates in the absence of presence of the polyphenolic glycoside polydatin or the Bacteroides liberated aglycone resveratrol. […] Growth induction or inhibition is measured as the ratio of growth in media (AUC) supplemented with glucose and 150 μM polydatin or resveratrol versus growth in media (AUC) supplemented with glucose and vehicle. Value>1 is representative of enhanced growth in compound and value <1 is representative of inhibition of growth in compound.
Bacterial isolates were grown in vitro in media plus compound. Killing was measured by bacterial culture optical density (proxy for amount of bacteria in a culture).
Phytochemical microbial killing assays: All gut pathogen isolates were grown on brain-heart-infusion supplemented with hemin (50 mg/L) and vitamin K1 (0.25 mg/L) (BHIS) agar plates or in basal media (BSG; proteose peptone (20 g/L), yeast (5 g/L), NaCl (5 g/L), glucose (5 g/L), potassium phosphate dibasic (5 g/L), cysteine (0.5 g/L), hemin (50 mg/L), and vitamin K1 (0.25 mg/L). Isolates were recovered on and grown in pre-reduced media in a Coy anaerobic chamber (Coy Labs). To determine the fitness effects of phloridzin hydrate (TCI), phloretin (TCI), polydatin (TCI), and resveratrol (TCI) on enteric pathogen fitness, each pathogen isolate was recovered on a BHIS agar plate and incubated anaerobically at 37 °C for 48 h. A starter culture (1 mL) of BSG was inoculated with C. difficile and grown for 15 h. This starter culture was then used to inoculate a BSG sub-culture (1 mL) at a final dilution of 1:10. This sub-culture was grown for 3 h to an OD600~0.5 before being used to inoculate experimental cultures at a final dilution of 1:50. The experimental media consisted of a modified YCFA media (mYCFA; casitone (2.5 g/L), yeast extract (0.625 g/L), cysteine (0.5 g/L), magnesium sulfate heptahydrate (f.c. 365 μM), calcium chloride dihydrate (f.c. 610 μM), sodium bicarbonate (4 g/L), dipotassium phosphate (0.45 g/L), monopotassium phosphate (0.45 g/L), sodium chloride (0.9 g/L), sodium acetate (2.71 g/L), Hemin (50 mg/L), Vitamin K1 (0.25 mg/L), ferrous sulfate (4 μg/mL), ATCC vitamin mix (1% v/v)) supplemented with glucose (15 mM, Sigma) plus each compound (150 μM) or glucose (15 mM, Sigma) plus DMSO (0.15%, Sigma). Bacterial growth was monitored by measuring the optical density at 600 nm (OD600) of each culture in a 384 well plate with an Epoch2 spectrophotometer (BioTek Instruments) and MicroPlate stacker (Agilent BioTek) for 24 hours.

OC[C@H]1O[C@@H](Oc2cc(O)cc(/C=C/c3ccc(O)cc3)c2)[C@H](O)[C@@H](O)[C@@H]1O [polydatin]
anti-C. difficile activity of conditioned media from B. uniformis WT grown with polydatin (C. difficile M7404): inhibited the growth of Clostridioides difficile in vitro; also recorded: generated potent anti-C.difficile activity | growth inhibition of Clostridioides difficile (C. difficile isolates; 150 μM, 20 C. difficile isolates, growth ratio (AUC) vs vehicle (FIG. 3B)): did not; also recorded: but not its parent glycoside polydatin | killing / growth inhibition of diverse C. difficile isolates (C. difficile isolates; in vitro, media plus compound, culture optical density (FIG. 4)): did not
